# Test results reported in article PMC11161644, “An effective and rapidly degradable disinfectant from disinfection byproducts” (Nature Communications, 2024).
# Values joined by “and” are separate entries in the source; they are usually repeats but may differ in a detail not shown here. Equal entries are not always repeated.
# Key:
# [1] = tested on: freshwater fish; set-up: method as in earlier work; settings: USEPA; cited from earlier work
# [2] = UPLC/ESI-tqMS time profile of 2,6-DCQ and its degradation products in simulated seawater (pH 8.2, darkness); OH-DCQ formation; settings: for Concentration: 2,6-DCQ degradation / OH-DCQ formation; for Peak area: 2,6-DCQ degradation, pH 8.2, darkness
# Method: A Waters UPLC system coupled with ESI-tqMS was used to characterize the degradation products of 2,6-DCQ. The UPLC separation was performed using an HSS T3 column (100 × 2.1 mm, 1.8 μm particle size, Waters) with a column temperature of 35 °C. A gradient eluent of methanol–water was applied at a flow rate of 0.4 mL min^−1. The gradient program was set as follows: methanol/water (v/v) ratio changed linearly from 5/95 to 90/10 in the first 8 min and then returned to 5/95 during 8.0‒8.1 min, which was held for 2.9 min for re-equilibration. The ESI-tqMS was set as follows: ESI negative mode, capillary voltage 2.8 kV, cone voltage 10–50 V (depending on analytes), cone gas flow 50 L h^−1, source temperature 120 °C, desolvation temperature 400 °C, desolvation gas flow 800 L h^−1, collision energy 15–50 eV (depending on analytes), collision gas (argon) flow 0.25 mL min^−1, and mass resolution 15 (1-unit resolution).
# The degradation of 2,6-DCQ in seawater was simulated by adding 10 mg L^−1 2,6-DCQ to 50 mL ultrapure water, which was adjusted to pH 8.2 with 5 mM sodium carbonate (to simulate the alkalinity in seawater and also to be compatible with the subsequent UPLC/ESI-tqMS analysis). The sample was kept in darkness for 0–24 h, during which the pH of the sample was maintained at 8.1 ± 0.1. At a designated reaction time, 7.5 μL of the sample was injected into the UPLC system. For a nonhalogenated degradation product, the selected ion recording (SIR) mode with a dwell time of 0.05 s was adopted to obtain the retention time. For halogenated degradation products, the multiple reaction monitoring mode with a dwell time of 0.05 s was used to obtain the retention time and the isotopic abundance ratio. To investigate the time-dependent profile of 2,6-DCQ and its degradation products, the peak area of each compound was determined using the SIR mode in the UPLC/ESI-tqMS analysis.
# The second aliquot was subjected to analysis of total organic halogen to quantify the collected OH-DCQ. The determination of total organic halogen was based on Standard Method 5320B[52], with modifications of using off-line ion chromatography for halide detection. Briefly, the aliquot was dissolved in 100 mL ultrapure water and acidified to pH 2 with concentrated nitric acid[52] prior to adsorption onto pre-packed activated carbon columns (Mitsubishi). A three-channel adsorption module (TXA03C, Mitsubishi Chemical Analytech) was used for adsorption. An AQF-100 automatic quick furnace (Mitsubishi Chemical Analytech) was used for pyrolysis. During the pyrolysis process, the chlorine atoms in OH-DCQ were converted to chloride. The chloride ion concentration was determined using an ICS-3000 ion chromatography system (Dionex). 2,6-DCQ was used as a standard compound for measuring total organic halogen to determine the recovery of the analysis. The total organic halogen analysis was conducted in duplicate.
# [3] = tested on: E. coli; experiment: Fluorescence microscopic analysis of propidium iodide-stained E. coli (membrane integrity); format: cell-based, Escherichia coli; settings: with increasing 2,6-DCQ dose
# Method: The E. coli cells in the control and disinfected samples were pelleted by centrifugation at 8000×g (5 min, 4 °C) and resuspended in 200 μL PBS (0.1 M, pH 7.2). Propidium iodide[54] was added to the cell suspension at a concentration of 75 μM. After propidium iodide staining in darkness for 30 min, the samples were washed twice with PBS and mounted on glass slides. The samples were then examined using a fluorescence microscope (Eclipse Ti, Nikon, Japan). The fluorescence intensity was semi-quantified with ImageJ software (National Institutes of Health, Bethesda, MD).
# [4] = tested on: P. dumerilii embryos; experiment: Developmental toxicity (EC50) of OH-DCQ and 2,6-DCQ to P. dumerilii embryos; format: in vivo, Platynereis dumerilii
# Method: The third aliquot was subjected to the developmental toxicity assay with P. dumerilii embryos. The aliquot was dissolved in 10 mL of seawater and adjusted to pH 8.2. The embryos at 12-h postfertilization were exposed to different levels of OH-DCQ for 12 h. By 24-h postfertilization, normally and abnormally developed embryos were counted using an inverted stereomicroscope. Based on the percentage of normally developed embryos, an exposure−response curve was generated. The median effective concentration (EC50) was determined using SigmaPlot 12 software. The developmental toxicity of 2,6-DCQ was also evaluated for comparison. The toxicity bioassay was conducted in duplicate.
compound,measurement,setting,value
"Cc1cc(O)cc(C)c1Cl [PCMX, para-chloro-meta-xylenol, reference compound]",Toxicity rating to freshwater fish,[1],highly toxic
"O=C1C=C(Cl)C(=O)C(Cl)=C1 [2,6-DCQ, 2,6-dichlorobenzoquinone]",Concentration,[2]; degradation time 0 h,10000 ng/mL
same,Concentration,[2]; degradation time 0.25 h,9325 ng/mL
same,Concentration,[2]; degradation time 0.5 h,7750.7 ng/mL
same,Concentration,[2]; degradation time 0.75 h,7678 ng/mL
same,Concentration,[2]; degradation time 1 h,6527 ng/mL
same,Concentration,[2]; degradation time 1.25 h,5831 ng/mL
same,Concentration,[2]; degradation time 1.5 h,4783 ng/mL
same,Concentration,[2]; degradation time 1.75 h,4325 ng/mL
same,Concentration,[2]; degradation time 2 h,3926 ng/mL
same,Concentration,[2]; degradation time 2.25 h,3481 ng/mL
same,Concentration,[2]; degradation time 2.5 h,3034.4 ng/mL
same,Concentration,[2]; degradation time 2.75 h,2761 ng/mL
same,Concentration,[2]; degradation time 3 h,2333 ng/mL
same,Concentration,[2]; degradation time 3.25 h,2120 ng/mL
same,Concentration,[2]; degradation time 3.5 h,1754 ng/mL
same,Concentration,[2]; degradation time 3.75 h,1608 ng/mL
same,Concentration,[2]; degradation time 4 h,1408 ng/mL
same,Concentration,[2]; degradation time 4.5 h,986.7 ng/mL
same,Concentration,[2]; degradation time 5 h,705.1 ng/mL
same,Concentration,[2]; degradation time 5.5 h,583.3 ng/mL
same,Concentration,[2]; degradation time 6 h,424 ng/mL
same,Concentration,[2]; degradation time 6.5 h,287.5 ng/mL
same,Concentration,[2]; degradation time 7 h,231.6 ng/mL
same,Concentration,[2]; degradation time 7.5 h,179.6 ng/mL
same,Concentration,[2]; degradation time 8 h,153.3 ng/mL
same,Concentration,[2]; degradation time 10 h,54.98 ng/mL
same,Concentration,[2]; degradation time 12 h,24.77 ng/mL
same,Concentration,[2]; degradation time 14 h,14.36 ng/mL
same,Concentration,[2]; degradation time 16 h,0 ng/mL
same,Concentration,[2]; degradation time 18 h,0 ng/mL
same,Concentration,[2]; degradation time 20 h,0 ng/mL
same,Concentration,[2]; degradation time 24 h,0 ng/mL
same,Peak area,[2]; 0 h,56527.8
same,Peak area,[2]; 0.25 h,52714.2
same,Peak area,[2]; 0.5 h,43813
same,Peak area,[2]; 0.75 h,43401.4
same,Peak area,[2]; 1 h,36894.2
same,Peak area,[2]; 1.25 h,32960.2
same,Peak area,[2]; 1.5 h,27035.4
same,Peak area,[2]; 1.75 h,24446.8
same,Peak area,[2]; 2 h,22195.6
same,Peak area,[2]; 2.25 h,19679.8
same,Peak area,[2]; 2.5 h,17152.8
same,Peak area,[2]; 2.75 h,15608.6
same,Peak area,[2]; 3 h,13185.2
same,Peak area,[2]; 3.25 h,11984
same,Peak area,[2]; 3.5 h,9914.8
same,Peak area,[2]; 3.75 h,9088.8
same,Peak area,[2]; 4 h,7959
same,Peak area,[2]; 4.5 h,5577.6
same,Peak area,[2]; 5 h,3985.8
same,Peak area,[2]; 5.5 h,3297
same,Peak area,[2]; 6 h,2396.8
same,Peak area,[2]; 6.5 h,1625.4
same,Peak area,[2]; 7 h,1309
same,Peak area,[2]; 7.5 h,1015
same,Peak area,[2]; 8 h,866.6
same,Peak area,[2]; 10 h,310.8
same,Peak area,[2]; 12 h,140
same,Peak area,[2]; 14 h,81.2
same,Peak area,[2]; 16 h,0
same,Peak area,[2]; 18 h,0
same,Peak area,[2]; 20 h,0
same,Peak area,[2]; 24 h,0
same,Propidium iodide fluorescence intensity relative to control sample,[3],3.5–59.2 times
same,Normal development,"[4]; 2,6-DCQ concentration 0.2 mg L-1",80.7017% and 79.2079%
same,Normal development,"[4]; 2,6-DCQ concentration 0.3 mg L-1",76.7442% and 82.4428%
same,Normal development,"[4]; 2,6-DCQ concentration 0.4 mg L-1",80% and 80.822%
same,Normal development,"[4]; 2,6-DCQ concentration 0.5 mg L-1",62.0155% and 62.3077%
same,Normal development,"[4]; 2,6-DCQ concentration 0.6 mg L-1",42.1875% and 37.2727%
same,Normal development,"[4]; 2,6-DCQ concentration 0.75 mg L-1",16.2963% and 20.7921%
same,Normal development,"[4]; 2,6-DCQ concentration 1 mg L-1",7.407% and 6.667%
same,Developmental toxicity relative to OH-DCQ (times higher),[4]; P. dumerilii embryos,149 times
